The text below walks through data of PubChem BioAssay (NCI).

Test systems include HOP-62 NSCLC; OVCAR-3 ovarian; MDA-MB-231 breast; UO-31 renal; ACHN renal; HL-60(TB) leukemia; SK-MEL-5 melanoma; HCC-2998 colon; DMS 114 small cell lung; LXFL 529 NSCLC.
Common to all, as to test: NCI anticancer screen, dose series, 48 h

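How tested: cells in 96-well plates exposed to compound for 48 hours at five concentrations. The concentration for 50% growth inhibition is given as GI50. The concentration for full growth arrest is given as TGI.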 Some results are limits rather than exact numbers.

On to `Nc1cc2[nH]cnc2c(=O)[nH]1`, for which the TGI is more than 191 µM with HOP-62 NSCLC; 92.4 µM in the experiment on OVCAR-3 ovarian; more than 300 µM with MDA-MB-231 breast; more than 300 µM in the experiment on UO-31 renal; more than 300 µM in the experiment with ACHN renal; 178 µM with HL-60(TB) leukemia. The TGI in the experiment with SK-MEL-5 melanoma was more than 290 µM; in the experiment on HCC-2998 colon, more than 300 µM; in the experiment on DMS 114 small cell lung, more than 300 µM.
`CC1(O)CCC2(C)C(=O)C1(C)CCC21OCCO1` (stereo not drawn): the TGI in the experiment with OVCAR-3 ovarian, with UO-31 renal, in the experiment on ACHN renal, in the experiment with HL-60(TB) leukemia, in the experiment on SK-MEL-5 melanoma and in the experiment with LXFL 529 NSCLC was more than 100 µM each time. The TGI in the experiment with HCC-2998 colon and in the experiment with DMS 114 small cell lung was more than 100 µM throughout.
As for `Cc1c(Cl)cccc1NC(=O)/C(Cl)=C(\Cl)C(=O)O`, the TGI in the experiment on HOP-62 NSCLC was found to be 78.5 µM; with OVCAR-3 ovarian it was 34.1 µM; with UO-31 renal it was 32.7 µM; with ACHN renal it was 31.3 µM; in the experiment on SK-MEL-5 melanoma it was 38.2 µM; in the experiment on LXFL 529 NSCLC, 46.5 µM. Also, the values for the TGI in the experiment on HCC-2998 colon and in the experiment on DMS 114 small cell lung were 35.5 µM and 36.5 µM, respectively.
For `CCC[CH2][Sn]1([CH2]CCC)[O]C(=O)c2ccc(N)cc2[O]1`, the GI50 was 1.35 µM in the experiment on HOP-62 NSCLC; 1.24 µM in the experiment with OVCAR-3 ovarian; 0.185 µM in the experiment on MDA-MB-231 breast; 0.465 µM in the experiment with UO-31 renal; 0.655 µM in the experiment with ACHN renal; 0.105 µM in the experiment on HL-60(TB) leukemia. In addition, the GI50 in the experiment with SK-MEL-5 melanoma is 0.692 µM; in the experiment on LXFL 529 NSCLC, 0.0365 µM; in the experiment on HCC-2998 colon it was 0.855 µM. In addition, the TGI was 2.82 µM in the experiment on HOP-62 NSCLC; 2.52 µM with OVCAR-3 ovarian; 1.42 µM in the experiment with MDA-MB-231 breast; 1.82 µM with UO-31 renal; 1.92 µM with ACHN renal; 1.67 µM in the experiment with HL-60(TB) leukemia. Moreover, the TGI in the experiment on SK-MEL-5 melanoma came to 2.15 µM; in the experiment with LXFL 529 NSCLC, 0.248 µM; with HCC-2998 colon it was 2.48 µM.
As to `O=C1CCN2CCC(=O)c3c2c(cc2ccccc32)N1`, the TGI in the experiment with HOP-62 NSCLC, in the experiment with OVCAR-3 ovarian, in the experiment with UO-31 renal, with ACHN renal, in the experiment on SK-MEL-5 melanoma and with LXFL 529 NSCLC was more than 100 µM each time. Further, the TGI in the experiment with HCC-2998 colon and with DMS 114 small cell lung was more than 100 µM throughout.
Regarding `COc1c(Sc2ccccc2)cc(Sc2ccccc2)c2cccnc12`, the TGI is more than 100 µM with HOP-62 NSCLC; 61.2 µM with OVCAR-3 ovarian; 54 µM with UO-31 renal; more than 100 µM in the experiment on ACHN renal; 30.5 µM in the experiment with SK-MEL-5 melanoma; more than 100 µM with LXFL 529 NSCLC. In addition, the TGI in the experiment on HCC-2998 colon was more than 100 µM; in the experiment on DMS 114 small cell lung, 91.3 µM.
In the case of `COC(=O)C(CC(=O)c1c[nH]c2ccccc12)c1c[nH]c2ccccc12` (stereo not drawn), the TGI in the experiment with HOP-62 NSCLC is 54.8 µM; in the experiment on OVCAR-3 ovarian, more than 10 µM; with UO-31 renal it was 39.3 µM; with ACHN renal it was 37.7 µM; with HL-60(TB) leukemia, 49.4 µM; with SK-MEL-5 melanoma it was 32.2 µM. The TGI in the experiment with HCC-2998 colon amounted to 45.5 µM; in the experiment on DMS 114 small cell lung, 39.4 µM.
As for `Cc1c(C(=O)CC(=O)C(=O)Nc2cc(Cl)ccc2Cl)[n+](=O)c2ccccc2n1[O-]`, the TGI is more than 100 µM in the experiment with HOP-62 NSCLC; 61 µM with OVCAR-3 ovarian; more than 100 µM with UO-31 renal; more than 100 µM in the experiment with ACHN renal; more than 100 µM with SK-MEL-5 melanoma; more than 100 µM in the experiment on LXFL 529 NSCLC. In addition, the values for the TGI in the experiment with HCC-2998 colon and in the experiment with DMS 114 small cell lung were more than 100 µM and 61.3 µM, respectively.
As to `CN1C(=O)C2C=CC1C1CCC2N(C)C1=O` (stereo not drawn), the TGI with OVCAR-3 ovarian, in the experiment with UO-31 renal, in the experiment with HL-60(TB) leukemia, with SK-MEL-5 melanoma, in the experiment on LXFL 529 NSCLC and in the experiment on HCC-2998 colon was more than 100 µM each time. In the experiment on DMS 114 small cell lung, this molecule came in with a TGI of more than 100 µM.
On to `Cc1cccc(N=C2NC(=O)C(CC(=O)Nc3ccc(C)cc3C)S2)c1` (stereo not drawn), for which the TGI in the experiment with OVCAR-3 ovarian, in the experiment on UO-31 renal, in the experiment with ACHN renal, in the experiment on HL-60(TB) leukemia, in the experiment with SK-MEL-5 melanoma and in the experiment with LXFL 529 NSCLC was more than 100 µM each time. In addition, the TGI in the experiment with HCC-2998 colon and with DMS 114 small cell lung was more than 100 µM each time.
For `COc1ccc(NC(=O)n2nc(/C=C\c3ccc(O)c(OC)c3)cc2/C=C\c2ccc(O)c(OC)c2)cc1`, the GI50 in the experiment on HOP-62 NSCLC was 3.65 µM; in the experiment with OVCAR-3 ovarian it was 2.98 µM; with MDA-MB-231 breast it was 4.94 µM; in the experiment with UO-31 renal, 1.52 µM; in the experiment on ACHN renal, 4.18 µM; with HL-60(TB) leukemia, 2.55 µM. The GI50 with SK-MEL-5 melanoma was 3.67 µM; with HCC-2998 colon it was 5.78 µM. The TGI is 42.8 µM in the experiment with HOP-62 NSCLC; 8.4 µM in the experiment on OVCAR-3 ovarian; 83.5 µM in the experiment with MDA-MB-231 breast; 36.4 µM with UO-31 renal; more than 100 µM with ACHN renal; 6.69 µM in the experiment with HL-60(TB) leukemia. In addition, the TGI is 16.1 µM with SK-MEL-5 melanoma and more than 100 µM in the experiment with HCC-2998 colon.
Turning to `Cc1nn(CNc2ccccc2C(F)(F)F)c(=S)n1/N=C/c1ccc(F)cc1`, the GI50 was more than 100 µM with HOP-62 NSCLC; more than 100 µM with OVCAR-3 ovarian; 25.9 µM with MDA-MB-231 breast; more than 100 µM in the experiment on UO-31 renal; more than 100 µM with ACHN renal; 91.9 µM with HL-60(TB) leukemia. In addition, the GI50 with SK-MEL-5 melanoma and with HCC-2998 colon was more than 100 µM throughout. In addition, the TGI in the experiment on HOP-62 NSCLC, in the experiment with OVCAR-3 ovarian, in the experiment on MDA-MB-231 breast, in the experiment with UO-31 renal, in the experiment with ACHN renal and in the experiment with HL-60(TB) leukemia was more than 100 µM throughout. The TGI with SK-MEL-5 melanoma and in the experiment with HCC-2998 colon was more than 100 µM in each case.
For the molecule `[N-]=[N+]=CC(=O)COC(=O)c1ccccc1`, the TGI in the experiment with HOP-62 NSCLC, in the experiment with OVCAR-3 ovarian, in the experiment on MDA-MB-231 breast, in the experiment on UO-31 renal, in the experiment with ACHN renal and in the experiment on HL-60(TB) leukemia was more than 100 µM throughout. The TGI with SK-MEL-5 melanoma and with HCC-2998 colon was more than 100 µM in each case.
Take `CC(/C=C/NNC1=NC(c2ccccc2)C(c2ccccc2)=NN1)Sc1ccccc1N` (stereo not drawn): the TGI in the experiment on HOP-62 NSCLC was 33.7 µM; in the experiment with OVCAR-3 ovarian it was 22 µM; in the experiment with UO-31 renal, 20.1 µM; in the experiment on ACHN renal it was 22.2 µM; in the experiment on HL-60(TB) leukemia, 6.45 µM; in the experiment on SK-MEL-5 melanoma, 23.6 µM. Moreover, the TGI in the experiment with LXFL 529 NSCLC was 15.5 µM; with HCC-2998 colon, 29.9 µM.
